Test results reported in PubChem BioAssay AID2060342 (Molecular Pharmacology Branch, DTP, NCI, 2025).

System: 171881-019-R-J1-PDC multicell spheroid viability
Experiment: Anticancer human tumor 171881-019-R-J1-PDC patient-derived invasive breast carcinoma cell line growth inhibition [IpAb]
Settings: for IC50: curve of first compound; for viability, T/C: stronger effect = lower value
Outline: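 Spheroids of 60% malignant cells, 25% HUVEC and 15% MSC were exposed to targeted agents combined with ipatasertib or abemaciclib. Doses started at or near clinical Cmax (10 microM when unknown) and fell in half-log steps.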
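Further: spheroids exposed to the agents for seven days before readout.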

SMILES: CC(C)(C)c1cnc(CSc2cnc(NC(=O)C3CCNCC3)s2)o1 + CC(C)NCC(C(=O)N1CCN(c2ncnc3c2C(C)CC3O)CC1)c1ccc(Cl)cc1
- IC50 (second compound 0.1 µM): 187 nM
- IC50 (second compound 0.316 µM): 156 nM
- IC50 (second compound 1 µM): < 9.49 nM
- IC50 (second compound 3.16 µM): < 9.49 nM
- IC50 (second compound 10 µM): < 9.49 nM
- viability, T/C (second compound 0.1 µM, first compound 0.00949 µM): 104%
- viability, T/C (second compound 0.1 µM, first compound 0.03 µM): 120%
- viability, T/C (second compound 0.1 µM, first compound 0.0949 µM): 133%
- viability, T/C (second compound 0.1 µM, first compound 0.3 µM): 2.16%
- viability, T/C (second compound 0.1 µM, first compound 0.949 µM): 0.19%
- viability, T/C (second compound 0.1 µM, first compound 3 µM): 0.6%
- viability, T/C (second compound 0.316 µM, first compound 0.00949 µM): 82.3%
- viability, T/C (second compound 0.316 µM, first compound 0.03 µM): 91%
- viability, T/C (second compound 0.316 µM, first compound 0.0949 µM): 89.2%
- viability, T/C (second compound 0.316 µM, first compound 0.3 µM): 0.99%
- viability, T/C (second compound 0.316 µM, first compound 0.949 µM): 0.25%
- viability, T/C (second compound 0.316 µM, first compound 3 µM): 0.63%
- viability, T/C (second compound 1 µM, first compound 0.00949 µM): 24.9%
- viability, T/C (second compound 1 µM, first compound 0.03 µM): 34.3%
- viability, T/C (second compound 1 µM, first compound 0.0949 µM): 38.6%
- viability, T/C (second compound 1 µM, first compound 0.3 µM): 0.53%
- viability, T/C (second compound 1 µM, first compound 0.949 µM): 0.49%
- viability, T/C (second compound 1 µM, first compound 3 µM): 0.25%
- viability, T/C (second compound 3.16 µM, first compound 0.00949 µM): 11.1%
- viability, T/C (second compound 3.16 µM, first compound 0.03 µM): 13.2%
- viability, T/C (second compound 3.16 µM, first compound 0.0949 µM): 19.1%
- viability, T/C (second compound 3.16 µM, first compound 0.3 µM): 0.68%
- viability, T/C (second compound 3.16 µM, first compound 0.949 µM): 0.24%
- viability, T/C (second compound 3.16 µM, first compound 3 µM): 0.28%
- viability, T/C (second compound 10 µM, first compound 0.00949 µM): 5.77%
- viability, T/C (second compound 10 µM, first compound 0.03 µM): 6.05%
- viability, T/C (second compound 10 µM, first compound 0.0949 µM): 9.31%
- viability, T/C (second compound 10 µM, first compound 0.3 µM): 0.64%
- viability, T/C (second compound 10 µM, first compound 0.949 µM): 0.26%
- viability, T/C (second compound 10 µM, first compound 3 µM): 0.31%
